Assay results: patent US20240390327A1, “THERAPEUTIC COMPOSITIONS AND METHODS” (Johns Hopkins University, priority 2021, published 2024)
Entries after “also recorded” stand apart in the source; their conditions may differ.

Experiments:
rats with PCL syndrome = assay: Diffusion tensor imaging in PCL model; type: in vivo, rat; settings: 11.7T MRI
Experimental: Diffusion Tensor Imaging was performed on an 11.7T Bruker MRI scanner. These images were processed to assign directional colors ([…] transverse, blue vertical, and green orthogonal to the plane).

[1] = system: rats with PCL syndrome (LPS plus Poly IC); assay: Nociception (mechanical allodynia, thermal hypersensitivity) in Post-COVID Like (PCL) model; type: in vivo, rat; settings: chronic pain lasting greater than 2 months
Experimental: LPS (3 mg/kg ip) is given to prime the immune system of rats on postnatal (P) 45, 46 and P47. Subsequently, Poly IC (2, 3, or 5 mg/kg ip) is given on P55 to mimic a viral exposure. The response to these stimuli are studied in the following acute, subacute and chronic timepoints. Pain and activity in an open field are outcome measures we use routinely to track the development of the PCL syndrome.
For experimental design and development of pel syndrome with cognitive assessment, LPS (3 mg/kg ip) is given to prime the immune system of rats on postnatal (P) 45, 46 and P47. Subsequently, Poly IC (5 mg/kg ip) is given on P55 to mimic a viral exposure. The response to these stimuli are studied in the following acute, subacute and chronic timepoints. Pain and Activity in an Open Field are outcome measures we use routinely to track the development of the PCL syndrome. Similarly, Touchscreen cognitive assessment occurs simultaneously throughout the Acute, SubAcute and Chronic Phases. Using a touchscreen assessment platform, we first assess visual discrimination. We then assess cognitive flexibility through a test of reversal learning, and then a test of attention called 5 choice serial reaction (5CSRTT).
After priming the immune system with systemic lipopolysaccharide (LPS) on postnatal day 45-47, rats receive the viral mimetic poly(I:C) on P55.

CAM-IVH rats = assay: Intra-aural distance (macrocephaly) in CAM-IVH model of PHHP; type: in vivo, rat; settings: treatment P2-P10, followed through P21
Experimental: For each experiment with a statistical analysis, a power analysis was performed to estimate the required sample size (G*Power 3.1.9.3). We used preliminary and published data to estimate means and standard deviations for each group for the primary outcomes of intra-aural distance, ventriculomegaly, neurodevelopmental assessment, qPCR, and DTI analyses (Farkas et al., 2009; Yung et al., 2011; Baharnoori et al., 2012; Jantzie et al., 2014a,b, 2018; Robinson et al., 2016). Scanning electron microscopy qualitative analysis of EMC was set a priori as two per group. Primary endpoints were set a priori as described in the text, and were daily (P4-P15 and P21) for IAD and neurodevelopment, P5 for ventriculomegaly, P15 for periventricular YAP mRNA, and P21 for remaining assays. No animals were individually excluded except, as noted in the text, those who were removed prior to P21 due to poor health. DTI images from one rat were excluded due to poor image acquisition quality prior to quantification. Rats from both institutions and at least two separate litters were used for all experiments, except rats for SEM were prepared at one institution. Rats from both sexes were randomly assigned to injury (CAM versus sham at E18, IVH versus vehicle at P1) and to treatment group (EPO+MLT or vehicle on P2 for CAM-IVH rats). […]

naïve rats = assay: EPO+MLT regimen in naïve neonatal rats, unanticipated effects; type: in vivo, rat; settings: doses administered the same time of day
Experimental: To test if EPO+MLT could prevent the onset of PHHP, on P2 CAM+IVH rats were randomized to receive either EPO+MLT or vehicle from P2 (equivalent to approximately 32 weeks human gestation) to P10 (full term in humans). Six doses of EPO (2500 U/kg/dose i.p.) or vehicle were administered on P2-P5, P7 and P9. Nine doses of MLT (20 mg/kg/dose i.p.) or vehicle were administered on P2-P10. A subset of 36 CAM-IVH pups were randomized to receive vehicle, EPO alone, MLT alone, or EPO+MLT to test impact of treatment on macrocephaly. […] To determine if EPO+MLT had any unanticipated effect on normal neurodevelopment, a set of naïve pups underwent EPO+MLT treatment.
Neurodevelopmental battery included nine tests (surface righting, negative geotaxis, cliff aversion, forelimb grasp, audio startle, eye opening, ear twitch, forelimb placement, and air righting) (Farkas et al., 2009; Bahamoori et al., 2012). Since no differences with audio startle or eye opening were noted across groups, these two tests were not included for naïve rats. Observers blinded to injury and treatment group tested 146 rats each day from P4 to P15, and then at P21.
To determine if the progressive macrocephaly and poor cliff aversion performance observed in CAM-IVH rats was preventable, we assessed the efficacy of combined EPO+MLT treatment in the neonatal period in a separate cohort of rats (n=88). […]

[2] = system: patients (adult traumatic brain injury; pediatric and neonatal trials); settings: cited from earlier work
[3] = system: rats with prenatal injury (TSHI plus intra-amniotic LPS); assay: Open field after prenatal injury (chorioamnionitis model of cerebral palsy); type: in vivo, rat; settings: P28-P30 open field
Description: As placental structure and function is of significant clinical importance to neurologic sequelae in preterm survivors (59-61), we use a prenatal model of in utero transient systemic HI (TSHI) and intra-amniotic lipopolysaccharide (LPS) administration in pregnant rats (62-64). This approach capitalizes on an intact maternal-placental-fetal unit and is a model of PBI from extreme preterm birth (<28 weeks of gestation) that mimics dual intrauterine injury from placental underperfusion and chorioamnionitis (65). Briefly, under isoflurane anesthesia, a laparotomy is performed on embryonic day (E) 18. Uterine arteries are clamped for 60 min and followed by intra-amniotic injections of LPS (4 μg/sac; 0111:B4, Sigma, St. Louis, MO, USA) (62, 64, 65). Sham controls undergo anesthesia and laparotomy for 60 min without arterial clamping or LPS injections. Following closure of the laparotomy, dams receive narcotic pain medication, recover, and pups are born vaginally at E22, approximately equal to 30-32 weeks in human gestation. We have previously reported the effects of TSHI and LPS alone, and in concert, on CNS pathological hallmarks, functional motor outcomes, histologic placental injury, and expression of common pro-inflammatory cytokines (63, 64).
When EPO was administered in isolation, it was given from P1 to P5 at 2,000 U/kg/dose as previously published (47, 48, 54, 55, 71, 72). […]

PBMCs = assay: PBMC secretome after buprenorphine stimulation in culture; settings: P21 PBMCs, 3 h culture; EPO 10 U/mL + MLT 20 μM; naloxone 10 μM

## COc1ccc2[nH]cc(CCNC(C)=O)c2c1 [MLT, N-acetyl-5-methoxytryptamine]
Rats with PCL syndrome
  white matter microstructural integrity (directional color DTI): the microstructural integrity is altered and the colors are muted
[1]
  chronic thermal hypersensitivity: neither ROX nor MLT alone
CAM-IVH rats
  intra-aural distance (IAD), progressive macrocephaly: the IADs were not significantly different compared littermates that received vehicle
naïve rats
  impact on the circadian rhythm: no impact was evident

## EPO: erythropoietin compound or erythropoietin, in particular human recombinant erythropoietin
[2]; high-dose, extended EPO regimens
  adverse events in pediatric and neonatal EPO trials: no adverse events have emerged with high-dose, extended EPO regimens in neonatal trials
[2]; versus placebo
  adverse events in meta-analyses of EPO for severe adult traumatic brain injury: no adverse events were evident compared to placebo treatment
[3]
  disinhibition (open field): does not; also recorded: did not improve disinhibition
CAM-IVH rats
  intra-aural distance (IAD), progressive macrocephaly: the IADs were not significantly different compared littermates that received vehicle

## C=CCN1CC[C@]23c4c5ccc(O)c4O[C@H]2C(=O)CC[C@@]3(O)[C@H]1C5 [naloxone]
PBMCs
  secretion of interferon gamma and IL-6 by PBMCs treated with buprenorphine: blocked the secretion of these proinflammatory mediators
